From ChEMBL document CHEMBL5465560, “Selectivity Literature for EUbOPEN Chemogenomic Library” (2024)
Blank lines part the entries; values can stand above or below the compound they belong to.

Legend:
[1] = molecular target: Tyrosine-protein kinase ABL1 (Homo sapiens, UniProt P00519); assay: Selectivity interaction (KinomeScan (DiscoverX)) EUB0001868a ABL1; conditions: at 1 µM
[2] = molecular target: T1, Serine/threonine-protein kinase Nek5 (Homo sapiens) (UniProt Q6P3R8); assay: Selectivity interaction (KinomeScan (DiscoverX)) EUB0001049a NEK5; conditions: at 1 µM
T1 sequence (whole entry): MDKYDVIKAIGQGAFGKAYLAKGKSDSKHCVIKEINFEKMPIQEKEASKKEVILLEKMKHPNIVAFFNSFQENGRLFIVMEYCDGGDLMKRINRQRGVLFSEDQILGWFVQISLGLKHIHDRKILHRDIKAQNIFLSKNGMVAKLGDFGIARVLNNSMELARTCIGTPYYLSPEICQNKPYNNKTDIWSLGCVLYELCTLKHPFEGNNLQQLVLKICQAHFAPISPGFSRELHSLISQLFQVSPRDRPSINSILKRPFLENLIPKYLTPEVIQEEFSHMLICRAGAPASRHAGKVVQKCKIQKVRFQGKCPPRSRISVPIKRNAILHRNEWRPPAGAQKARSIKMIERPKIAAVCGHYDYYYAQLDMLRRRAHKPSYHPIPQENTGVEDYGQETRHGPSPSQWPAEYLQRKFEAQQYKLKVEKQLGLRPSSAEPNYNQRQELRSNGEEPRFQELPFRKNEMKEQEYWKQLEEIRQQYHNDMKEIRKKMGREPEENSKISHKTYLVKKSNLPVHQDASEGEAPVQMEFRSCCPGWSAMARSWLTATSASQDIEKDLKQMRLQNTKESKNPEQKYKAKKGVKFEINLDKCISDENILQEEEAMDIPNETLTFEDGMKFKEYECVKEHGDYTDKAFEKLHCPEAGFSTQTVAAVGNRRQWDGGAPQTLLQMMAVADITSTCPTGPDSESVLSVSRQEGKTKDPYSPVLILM

[3] = molecular target: High affinity nerve growth factor receptor (Homo sapiens, UniProt P04629); assay: Selectivity interaction (Ambit KINOMEscan and KiNATiv profiling in Jurkat cells) EUB0000090b NTRK1; format: cell-based; conditions: at 1 µM
Sequence of High affinity nerve growth factor receptor (P04629 33-796 limits assumed): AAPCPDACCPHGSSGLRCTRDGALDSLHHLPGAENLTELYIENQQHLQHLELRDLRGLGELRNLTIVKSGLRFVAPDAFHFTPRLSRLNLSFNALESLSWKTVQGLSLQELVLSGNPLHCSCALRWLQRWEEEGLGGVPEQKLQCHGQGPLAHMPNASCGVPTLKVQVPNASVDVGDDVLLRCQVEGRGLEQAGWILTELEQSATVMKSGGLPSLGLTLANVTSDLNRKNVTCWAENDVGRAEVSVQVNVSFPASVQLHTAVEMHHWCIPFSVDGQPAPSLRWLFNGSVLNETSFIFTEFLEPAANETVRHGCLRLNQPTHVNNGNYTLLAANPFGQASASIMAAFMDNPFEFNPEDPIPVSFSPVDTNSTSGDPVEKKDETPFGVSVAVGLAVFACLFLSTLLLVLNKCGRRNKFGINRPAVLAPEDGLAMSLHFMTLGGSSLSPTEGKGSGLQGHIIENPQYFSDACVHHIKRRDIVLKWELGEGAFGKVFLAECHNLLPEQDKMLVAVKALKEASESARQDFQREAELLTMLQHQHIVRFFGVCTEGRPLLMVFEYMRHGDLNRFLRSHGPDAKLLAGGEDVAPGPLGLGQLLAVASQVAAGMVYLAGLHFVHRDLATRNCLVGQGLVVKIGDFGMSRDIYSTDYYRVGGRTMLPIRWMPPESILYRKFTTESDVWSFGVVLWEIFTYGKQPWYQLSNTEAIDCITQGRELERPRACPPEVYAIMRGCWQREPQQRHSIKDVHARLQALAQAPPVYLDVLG

[4] = molecular target: MAP/microtubule affinity-regulating kinase 3 (Homo sapiens) (UniProt P27448); assay: Selectivity interaction (ActivX KiNativ screen (kinase selectivity in THP-1 cell lysates)) EUB0000639a MARK3; format: subcellular; conditions: lysate, at 0.01 µM
Sequence of MAP/microtubule affinity-regulating kinase 3 (Homo sapiens) (P27448 whole entry, looked up): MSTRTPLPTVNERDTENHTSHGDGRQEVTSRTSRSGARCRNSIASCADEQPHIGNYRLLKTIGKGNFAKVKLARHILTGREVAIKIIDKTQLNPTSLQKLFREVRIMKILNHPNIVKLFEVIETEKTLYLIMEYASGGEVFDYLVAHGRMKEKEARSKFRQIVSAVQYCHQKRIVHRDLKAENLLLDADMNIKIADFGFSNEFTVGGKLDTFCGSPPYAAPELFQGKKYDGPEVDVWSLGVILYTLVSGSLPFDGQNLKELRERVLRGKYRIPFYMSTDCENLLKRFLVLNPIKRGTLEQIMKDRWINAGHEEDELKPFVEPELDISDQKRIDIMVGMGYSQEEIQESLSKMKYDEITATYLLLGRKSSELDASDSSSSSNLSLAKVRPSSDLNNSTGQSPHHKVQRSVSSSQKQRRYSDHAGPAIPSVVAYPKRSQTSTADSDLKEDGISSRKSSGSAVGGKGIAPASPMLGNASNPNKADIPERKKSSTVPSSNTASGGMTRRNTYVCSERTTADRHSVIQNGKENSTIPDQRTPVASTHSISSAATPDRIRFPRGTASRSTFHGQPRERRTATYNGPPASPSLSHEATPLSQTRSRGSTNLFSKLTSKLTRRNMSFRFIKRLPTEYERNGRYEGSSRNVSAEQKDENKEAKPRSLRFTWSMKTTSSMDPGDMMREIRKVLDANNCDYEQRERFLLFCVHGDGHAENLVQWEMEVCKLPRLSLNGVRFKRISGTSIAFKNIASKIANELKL

[5] = molecular target: RAC-alpha serine/threonine-protein kinase (Homo sapiens, UniProt P31749); assay: Selectivity interaction (Kinase panel (33PanQinase(R) Activity Assay)) EUB0000877a AKT1
Sequence of RAC-alpha serine/threonine-protein kinase (P31749 whole entry): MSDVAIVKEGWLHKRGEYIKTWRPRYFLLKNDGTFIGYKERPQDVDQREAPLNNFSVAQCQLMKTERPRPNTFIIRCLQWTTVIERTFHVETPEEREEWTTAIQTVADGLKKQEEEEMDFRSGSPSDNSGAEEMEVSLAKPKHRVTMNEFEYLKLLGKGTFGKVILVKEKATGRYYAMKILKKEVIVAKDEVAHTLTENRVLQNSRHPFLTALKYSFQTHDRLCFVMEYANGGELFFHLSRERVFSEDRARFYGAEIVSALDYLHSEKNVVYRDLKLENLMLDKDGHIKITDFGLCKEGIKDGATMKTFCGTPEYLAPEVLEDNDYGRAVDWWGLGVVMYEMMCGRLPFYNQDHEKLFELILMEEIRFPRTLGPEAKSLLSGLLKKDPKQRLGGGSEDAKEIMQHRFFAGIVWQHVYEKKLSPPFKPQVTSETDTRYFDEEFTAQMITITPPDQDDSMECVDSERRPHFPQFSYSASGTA

[6] = molecular target: Serine/threonine-protein kinase/endoribonuclease IRE1 (Homo sapiens) (UniProt O75460); assay: Selectivity interaction (KinomeScan (DiscoverX)) EUB0000595a ERN1; conditions: at 10 µM
Sequence of Serine/threonine-protein kinase/endoribonuclease IRE1 (Homo sapiens) (O75460 19-977 limits assumed): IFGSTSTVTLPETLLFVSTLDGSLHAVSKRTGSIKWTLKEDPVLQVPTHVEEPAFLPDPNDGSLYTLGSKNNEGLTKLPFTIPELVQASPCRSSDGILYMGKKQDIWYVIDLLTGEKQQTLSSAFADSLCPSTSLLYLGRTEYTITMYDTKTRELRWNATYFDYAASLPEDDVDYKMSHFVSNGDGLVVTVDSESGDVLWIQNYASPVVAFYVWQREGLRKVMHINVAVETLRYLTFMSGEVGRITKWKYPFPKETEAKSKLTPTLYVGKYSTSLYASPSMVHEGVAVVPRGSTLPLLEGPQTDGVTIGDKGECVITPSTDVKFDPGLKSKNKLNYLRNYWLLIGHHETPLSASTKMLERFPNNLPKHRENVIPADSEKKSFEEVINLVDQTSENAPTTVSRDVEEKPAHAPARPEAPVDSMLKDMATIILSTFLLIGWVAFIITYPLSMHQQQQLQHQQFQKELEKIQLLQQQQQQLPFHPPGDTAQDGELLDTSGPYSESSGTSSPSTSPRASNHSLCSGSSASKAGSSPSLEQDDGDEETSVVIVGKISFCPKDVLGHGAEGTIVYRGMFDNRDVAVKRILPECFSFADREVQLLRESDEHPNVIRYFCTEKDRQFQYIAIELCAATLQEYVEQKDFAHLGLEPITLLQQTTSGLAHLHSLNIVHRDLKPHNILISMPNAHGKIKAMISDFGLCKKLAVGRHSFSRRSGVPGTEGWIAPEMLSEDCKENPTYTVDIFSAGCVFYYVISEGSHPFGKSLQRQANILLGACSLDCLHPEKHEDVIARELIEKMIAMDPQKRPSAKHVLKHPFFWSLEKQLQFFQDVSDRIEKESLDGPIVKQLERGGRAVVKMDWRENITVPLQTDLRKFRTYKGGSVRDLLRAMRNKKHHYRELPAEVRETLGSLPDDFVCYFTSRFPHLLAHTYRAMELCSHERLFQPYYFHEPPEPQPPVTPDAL

[7] = molecular target: Cyclin-dependent kinase 14 (Homo sapiens) (UniProt O94921); assay: Selectivity interaction (KinomeScan (DiscoverX)) EUB0000092b CDK14; conditions: at 10 µM
Sequence of Cyclin-dependent kinase 14 (Homo sapiens) (O94921 whole entry): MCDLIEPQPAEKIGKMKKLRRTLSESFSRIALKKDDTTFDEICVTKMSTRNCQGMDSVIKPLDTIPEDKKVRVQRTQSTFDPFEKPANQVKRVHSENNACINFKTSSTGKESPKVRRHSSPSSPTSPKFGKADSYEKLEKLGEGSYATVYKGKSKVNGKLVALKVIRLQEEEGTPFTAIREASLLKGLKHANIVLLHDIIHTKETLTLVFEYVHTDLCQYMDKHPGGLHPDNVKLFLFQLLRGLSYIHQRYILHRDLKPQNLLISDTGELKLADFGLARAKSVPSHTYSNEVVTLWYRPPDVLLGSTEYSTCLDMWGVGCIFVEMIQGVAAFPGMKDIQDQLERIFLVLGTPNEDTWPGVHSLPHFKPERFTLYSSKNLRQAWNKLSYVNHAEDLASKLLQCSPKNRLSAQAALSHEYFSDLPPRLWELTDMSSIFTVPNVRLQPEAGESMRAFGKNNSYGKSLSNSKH

[8] = molecular target: T2, Inhibitor of nuclear factor kappa-B kinase subunit epsilon (Homo sapiens) (UniProt Q14164); conditions: at 1 µM
T2 sequence (whole entry): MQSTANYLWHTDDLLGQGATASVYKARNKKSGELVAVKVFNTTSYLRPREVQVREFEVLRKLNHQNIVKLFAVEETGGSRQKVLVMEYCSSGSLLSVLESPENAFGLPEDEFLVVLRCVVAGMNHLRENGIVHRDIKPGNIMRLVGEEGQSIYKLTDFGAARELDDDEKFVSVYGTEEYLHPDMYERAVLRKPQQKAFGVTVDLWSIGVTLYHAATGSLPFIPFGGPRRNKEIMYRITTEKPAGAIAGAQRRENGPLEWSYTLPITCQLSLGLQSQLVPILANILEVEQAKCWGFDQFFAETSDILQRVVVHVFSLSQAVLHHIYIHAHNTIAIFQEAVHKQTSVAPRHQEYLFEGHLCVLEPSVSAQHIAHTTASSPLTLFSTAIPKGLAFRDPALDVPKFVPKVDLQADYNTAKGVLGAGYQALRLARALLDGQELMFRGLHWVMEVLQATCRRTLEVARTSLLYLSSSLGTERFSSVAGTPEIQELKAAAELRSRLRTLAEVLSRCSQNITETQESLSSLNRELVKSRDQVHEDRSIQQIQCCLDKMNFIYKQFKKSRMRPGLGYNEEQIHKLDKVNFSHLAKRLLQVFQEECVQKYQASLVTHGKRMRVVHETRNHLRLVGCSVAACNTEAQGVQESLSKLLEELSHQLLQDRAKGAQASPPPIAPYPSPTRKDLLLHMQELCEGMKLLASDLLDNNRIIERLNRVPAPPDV

[9] = system: Epidermal growth factor receptor (Homo sapiens), P00533 [UNDEFINED MUTATION]; assay: Selectivity interaction (KinomeScan (DiscoverX)) EUB0000655a EGFR; conditions: at 10 µM
[10] = molecular target: Serine/threonine-protein kinase mTOR (Homo sapiens, UniProt P42345); assay: Selectivity interaction (KinomeScan (DiscoverX)) EUB0000607a MTOR; conditions: at 10 µM
[11] = molecular target: STE20-like serine/threonine-protein kinase (Homo sapiens, UniProt Q9H2G2); assay: Selectivity interaction (KinomeScan (DiscoverX)) EUB0000607a SLK; conditions: at 10 µM
[12] = molecular target: T3, Cytoplasmic tyrosine-protein kinase BMX (Homo sapiens) (UniProt P51813); assay: Selectivity interaction (KinomeScan (DiscoverX)) EUB0000666a BMX; conditions: at 10 µM
T3 sequence (whole entry): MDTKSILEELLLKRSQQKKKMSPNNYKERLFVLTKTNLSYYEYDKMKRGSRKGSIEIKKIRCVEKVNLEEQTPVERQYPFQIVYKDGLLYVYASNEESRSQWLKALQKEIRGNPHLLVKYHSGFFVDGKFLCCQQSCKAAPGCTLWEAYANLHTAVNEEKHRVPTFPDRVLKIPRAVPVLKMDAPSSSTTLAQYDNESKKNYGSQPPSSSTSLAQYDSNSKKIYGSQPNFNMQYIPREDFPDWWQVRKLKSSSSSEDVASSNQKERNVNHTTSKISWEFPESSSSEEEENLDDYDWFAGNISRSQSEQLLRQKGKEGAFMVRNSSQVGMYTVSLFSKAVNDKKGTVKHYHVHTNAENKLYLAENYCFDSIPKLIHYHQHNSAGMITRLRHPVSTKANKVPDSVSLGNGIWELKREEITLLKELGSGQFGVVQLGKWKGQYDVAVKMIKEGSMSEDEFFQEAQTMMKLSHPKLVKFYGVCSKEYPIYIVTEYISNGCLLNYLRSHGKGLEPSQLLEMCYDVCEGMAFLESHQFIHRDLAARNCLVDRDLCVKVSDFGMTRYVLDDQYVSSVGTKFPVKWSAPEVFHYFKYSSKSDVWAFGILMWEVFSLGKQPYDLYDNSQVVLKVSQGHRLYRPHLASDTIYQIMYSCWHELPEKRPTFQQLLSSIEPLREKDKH

[13] = molecular target: RAC-gamma serine/threonine-protein kinase (Homo sapiens, UniProt Q9Y243); assay: Selectivity interaction (KinomeScan (DiscoverX)) EUB0000666a AKT3; conditions: at 10 µM
Sequence of RAC-gamma serine/threonine-protein kinase (Q9Y243 whole entry): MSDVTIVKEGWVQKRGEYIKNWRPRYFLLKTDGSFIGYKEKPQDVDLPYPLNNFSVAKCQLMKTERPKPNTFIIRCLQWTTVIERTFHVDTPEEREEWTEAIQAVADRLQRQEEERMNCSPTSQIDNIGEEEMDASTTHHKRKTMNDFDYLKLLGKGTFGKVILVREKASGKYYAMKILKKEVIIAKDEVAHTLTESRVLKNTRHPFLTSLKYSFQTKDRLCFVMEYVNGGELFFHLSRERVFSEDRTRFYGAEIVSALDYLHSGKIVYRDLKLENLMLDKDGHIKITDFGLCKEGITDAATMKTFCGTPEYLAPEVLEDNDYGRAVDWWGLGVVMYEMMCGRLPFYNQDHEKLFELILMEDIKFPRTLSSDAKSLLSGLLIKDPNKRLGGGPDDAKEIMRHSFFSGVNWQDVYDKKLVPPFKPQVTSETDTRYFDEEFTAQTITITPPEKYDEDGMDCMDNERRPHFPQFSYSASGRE

Sequence of Tyrosine-protein kinase ABL1 (P00519 whole entry): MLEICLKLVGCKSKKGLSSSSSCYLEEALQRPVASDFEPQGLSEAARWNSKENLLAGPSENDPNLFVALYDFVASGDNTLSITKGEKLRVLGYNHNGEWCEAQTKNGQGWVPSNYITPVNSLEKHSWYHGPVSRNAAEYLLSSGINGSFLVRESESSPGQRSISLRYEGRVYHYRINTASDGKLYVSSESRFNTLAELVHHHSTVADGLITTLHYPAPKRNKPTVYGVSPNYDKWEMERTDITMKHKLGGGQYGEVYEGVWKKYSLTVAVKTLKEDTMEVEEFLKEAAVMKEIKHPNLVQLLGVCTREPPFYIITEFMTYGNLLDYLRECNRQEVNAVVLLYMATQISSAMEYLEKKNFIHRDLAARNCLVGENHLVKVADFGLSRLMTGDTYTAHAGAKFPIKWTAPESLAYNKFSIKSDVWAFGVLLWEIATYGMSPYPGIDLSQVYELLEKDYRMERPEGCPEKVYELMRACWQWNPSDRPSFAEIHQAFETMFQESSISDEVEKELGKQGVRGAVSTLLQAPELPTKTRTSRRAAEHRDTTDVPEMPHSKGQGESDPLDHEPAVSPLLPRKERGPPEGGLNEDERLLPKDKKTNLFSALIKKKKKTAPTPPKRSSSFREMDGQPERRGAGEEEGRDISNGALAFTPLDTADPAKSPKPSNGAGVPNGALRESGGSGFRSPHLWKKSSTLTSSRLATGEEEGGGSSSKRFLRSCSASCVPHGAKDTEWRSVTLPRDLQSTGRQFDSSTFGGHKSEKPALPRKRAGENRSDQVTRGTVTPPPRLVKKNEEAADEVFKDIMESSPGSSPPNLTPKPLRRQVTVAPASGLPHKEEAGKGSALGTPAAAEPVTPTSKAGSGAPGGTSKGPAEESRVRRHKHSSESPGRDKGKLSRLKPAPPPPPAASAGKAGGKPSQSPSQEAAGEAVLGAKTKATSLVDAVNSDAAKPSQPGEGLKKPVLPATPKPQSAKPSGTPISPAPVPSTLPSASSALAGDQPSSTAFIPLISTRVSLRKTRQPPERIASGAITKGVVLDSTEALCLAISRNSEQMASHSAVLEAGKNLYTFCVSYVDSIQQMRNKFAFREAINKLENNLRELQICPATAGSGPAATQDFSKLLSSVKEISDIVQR

% of control [1]: 21%
SMILES: Cc1cc(-c2ccnc(Nc3cnn(C)c3)n2)ccc1CNC(=O)N1CC(OC(C)C)C1

SMILES: COc1cc(Nc2nc(C)cc(-c3cnn4nc(OC)ccc34)n2)cc(C(F)(F)F)c1
% of control [2]: 96%

SMILES: CN(C)C/C=C/C(=O)Nc1ccc(C(=O)N2CCCC(Nc3ncc(Cl)c(-c4c[nH]c5ccccc45)n3)C2)cc1 (stereo not drawn)
% of control [3]: 78%

% of inhibition [4]: 2.3%
SMILES: CC[C@@H]1[C@H](F)C(=O)N[C@@H]1COc1nccc2cc(C(N)=O)c(OC)cc12 [ZIMLOVISERTIB]

IC50 [5]: > 10 µM
SMILES: CCC(=O)N1CC[C@H](Nc2ncnc3c2CN(c2cnc(OC)c(C(F)(F)F)c2)CC3)C1 [LENIOLISIB]

SMILES: COCC(=O)NC/C=C/c1ccc2ncnc(Nc3ccc(Oc4ccc(C)nc4)c(C)c3)c2c1 [CP-724714]
% of control [6]: 82%

SMILES: CCC(=O)N1CCN(c2ccc(-n3c(=O)ccc4cnc5ccc(-c6cnc7ccccc7c6)cc5c43)cc2C(F)(F)F)CC1
% of control [7]: 99%

% of inhibition [8]: 11%
SMILES: Cc1ccc(-c2ccc3c(ccc4sc5c(c43)NC[C@@H](C)NC5=O)n2)cn1

SMILES: CN(C)CCOc1ccc(-c2nc(-c3ccncc3)c(-c3ccc4c(c3)CC/C4=N\O)[nH]2)cc1
% of control [9]: 67%

SMILES: CNC(=O)Nc1ccc(-c2nc(N3CC4CCC(C3)O4)c3cnn(C4CCC5(CC4)OCCO5)c3n2)cc1
% of control [10]: 5.7%
% of control [11]: 100%

SMILES: O=C(NOC[C@H](O)CO)c1ccc(F)c(F)c1Nc1ccc(I)cc1F
% of control [12]: 92%
% of control [13]: 89%
